Measurements reported in ChEMBL document CHEMBL1138979, “From pyrroles to pyrrolo[1,2-a]pyrazinones: a new class of mGluR1 antagonists” (Bioorg Med Chem Lett, 2006).

Key:
[1] = target: T1, Metabotropic glutamate receptor 1 (Rattus norvegicus, UniProt P23385); assay: Inhibition of rat mGluR1a in CHO cells by CDP-DAG accumulation method; assay type: functional, cell-based
[2] = target: T1, Metabotropic glutamate receptor 1; assay: Inhibition of rat mGluR1a in CHO cells by CDP-DAG accumulation method upto 100 uM; assay type: functional, cell-based

T1 sequence (P23385 whole entry): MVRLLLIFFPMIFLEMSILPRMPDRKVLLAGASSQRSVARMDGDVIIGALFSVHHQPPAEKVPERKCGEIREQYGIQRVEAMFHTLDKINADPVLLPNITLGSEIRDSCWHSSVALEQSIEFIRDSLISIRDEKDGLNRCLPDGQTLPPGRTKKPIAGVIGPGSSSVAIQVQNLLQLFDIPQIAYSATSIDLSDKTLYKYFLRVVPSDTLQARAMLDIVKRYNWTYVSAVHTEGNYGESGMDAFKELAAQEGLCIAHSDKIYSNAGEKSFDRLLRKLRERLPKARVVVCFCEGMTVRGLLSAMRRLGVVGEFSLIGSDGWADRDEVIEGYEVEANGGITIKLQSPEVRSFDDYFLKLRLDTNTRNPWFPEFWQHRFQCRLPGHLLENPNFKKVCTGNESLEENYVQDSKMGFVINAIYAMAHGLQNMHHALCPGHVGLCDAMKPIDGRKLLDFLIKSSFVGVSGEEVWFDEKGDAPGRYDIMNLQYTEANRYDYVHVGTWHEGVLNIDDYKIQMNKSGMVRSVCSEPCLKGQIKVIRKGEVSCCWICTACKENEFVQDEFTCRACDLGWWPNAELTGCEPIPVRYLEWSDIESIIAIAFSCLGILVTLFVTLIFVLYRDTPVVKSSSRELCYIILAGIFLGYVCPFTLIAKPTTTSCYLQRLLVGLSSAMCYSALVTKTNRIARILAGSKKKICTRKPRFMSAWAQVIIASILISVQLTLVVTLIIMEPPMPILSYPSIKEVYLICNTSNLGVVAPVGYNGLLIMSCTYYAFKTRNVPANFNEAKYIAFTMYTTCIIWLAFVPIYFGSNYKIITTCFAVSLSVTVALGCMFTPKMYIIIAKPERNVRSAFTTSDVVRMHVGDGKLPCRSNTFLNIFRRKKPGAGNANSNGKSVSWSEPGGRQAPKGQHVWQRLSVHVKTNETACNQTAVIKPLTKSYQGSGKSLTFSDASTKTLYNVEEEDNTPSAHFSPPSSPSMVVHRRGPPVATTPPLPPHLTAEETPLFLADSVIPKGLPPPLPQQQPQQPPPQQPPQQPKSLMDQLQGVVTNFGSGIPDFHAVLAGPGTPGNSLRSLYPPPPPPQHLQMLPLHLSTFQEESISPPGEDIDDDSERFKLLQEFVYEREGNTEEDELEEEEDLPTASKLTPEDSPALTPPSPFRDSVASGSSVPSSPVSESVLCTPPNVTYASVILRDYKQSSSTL

Compound | IC50 [1] [nM] | IC50 [2]
Cc1c(C(=O)OC(C)C(C)(C)C)cn2c1C(=O)N(CCNC(=O)OC(C)(C)C)CC2 (stereo unspecified) | 398 | –
Cc1c(C(=O)OC(C)C(C)(C)C)cn2c1C(=O)N(CCCN(C)C(=O)c1ccncc1)CC2 (stereo unspecified) | 3160 | –
CCNC(=O)NCCCN1CCn2cc(C(=O)OC(C)C(C)(C)C)c(C)c2C1=O (stereo unspecified) | 398 | –
Cc1c(C(=O)OC(C)C(C)(C)C)cn2c1C(=O)N(Cc1ccccc1)CC2 (stereo unspecified) | 251 | –
CC(=O)NCCCN1CCn2cc(C(=O)OC(C)C(C)(C)C)c(C)c2C1=O (stereo unspecified) | 501 | –
Cc1c(C(=O)OC(C)C(C)(C)C)cn2c1C(=O)N(N1CCOCC1)CC2 (stereo unspecified) | 3160 | –
Cc1c(C(=O)OC(C)C(C)(C)C)cn2c1C(=O)N(CCCNC(=O)c1ccncc1)CC2 (stereo unspecified) | 398 | –
Cc1c(C(=O)OC(C)C(C)(C)C)cn2c1C(=O)N(CCCN1C(=O)c3ccccc3C1=O)CC2 (stereo unspecified) | 15.8 | –
Cc1c(C(=O)OC(C)C(C)(C)C)cn2c1C(=O)NCC2 (stereo unspecified) | – | Not Active

More lines, now with the values ahead:

IC50 [1] [nM] | IC50 [2] | Compound
251 | – | COCCN1CCn2cc(C(=O)OC(C)C(C)(C)C)c(C)c2C1=O (stereo unspecified)
20 | – | C=CCN1CCn2cc(C(=O)OC(C)C(C)(C)C)c(C)c2C1=O (stereo unspecified)
20 | – | Cc1c(C(=O)OC(C)C(C)(C)C)cn2c1C(=O)N(CCF)CC2 (stereo unspecified)
25.1 | – | Cc1c(C(=O)OC(C)C(C)(C)C)cn2c1C(=O)N(CC(F)F)CC2 (stereo unspecified)
– | Not Active | Cc1c(C(=O)OC(C)C(C)(C)C)cn2c1C(=O)N(CCCN)CC2 (stereo unspecified)
39.8 | – | CCCN1CCn2cc(C(=O)OC(C)C(C)(C)C)c(C)c2C1=O (stereo unspecified)
20 | – | Cc1c(C(=O)OC(C)C(C)(C)C)cn2c1C(=O)N(CC1CC1)CC2 (stereo unspecified)
